Measured values as given in patent publication US20060211651A1, “Persulfated oligosaccharide acting on selectins and chemokine” (Taisho Pharmaceutical Co., Ltd., priority 2002, published 2006).

Columns and labels:
L-selectin-Ig [1] = target: T1, L-selectin-Ig (Homo sapiens, UniProt P14151); experiment: Binding of biotinylated oligosaccharide fraction (streptavidin-alkaline phosphatase) to L-selectin-Ig; conditions: FIG. 7 panel D; absorbance at 620 nm
T1 construct: purchased R & D Systems Inc
Description: (§1) First, each of oligosaccharides was biotinylated with biotin-LC-hydrazide at a reducing end. To each of the fraction a, the fraction c, the fraction e-1 and the fraction e-2 obtained in the above item (2), 125 mM EZ-link™ biotin-LC-hydrazide and 1M NaCNBH3 in dimethyl sulfoxide/acetic acid (7:3) were added. The resulting reaction mixture was incubated at 65° C. for 3 hours, and then incubated at 37° C. for 12.5 to 18.5 hours to biotinylate an oligosaccharide. Each of the resulting reaction products was subjected to Sephadex G-25 column as described above, to remove unreacted biotin-LC-hydrazide, thereby collecting the fraction containing a biotinylated oligosaccharide. Then, the resulting fraction was evaporated to dryness.
(§2) Then, a part of a fraction containing 16 pmol of each biotinylated oligosaccharide was dissolved in 0.5 ml of the buffer A, and thereafter, each of the resulting solutions and 1 μl (2 pmol) of streptavidin-conjugated alkaline phosphatase [manufactured by Promega] were incubated at 4° C. overnight.
(§3) Each of the resulting products was 3-fold diluted with the buffer A respectively. […] Binding was determined by measuring absorbance at 620 nm using Blue Phos™ substrate. […]

P-selectin-Ig [2] = experiment: Binding of biotinylated oligosaccharide fraction (streptavidin-alkaline phosphatase) to P-selectin-Ig; conditions: FIG. 7 panel D; absorbance at 620 nm
Description: as §1, §2, §3

[3] = test system: secondary lymphoid tissue chemokine; experiment: Binding of biotinylated oligosaccharide fraction (streptavidin-alkaline phosphatase) to SLC; conditions: FIG. 7 panel D; absorbance at 620 nm
Description: as §1, §2, §3

[4] = target: T2, γ-interferon inducible protein-10 (Homo sapiens, UniProt P02778); experiment: Binding of biotinylated oligosaccharide fraction (streptavidin-alkaline phosphatase) to IP-10; conditions: FIG. 7 panel D; absorbance at 620 nm
Description: as §1, §2, §3

[5] = target: T3, stromal cell-derived factor-1β (Homo sapiens, UniProt P48061); experiment: Binding of biotinylated oligosaccharide fraction (streptavidin-alkaline phosphatase) to SDF-1β; conditions: FIG. 7 panel D; absorbance at 620 nm
T3 construct: purchased Pepro Tech
Description: as §1, §2, §3

platelet factor 4 [6] = target: T4, platelet factor 4 (Homo sapiens, UniProt P02776); experiment: Binding of biotinylated oligosaccharide fraction (streptavidin-alkaline phosphatase) to PF4; conditions: FIG. 7 panel D; absorbance at 620 nm
T4 sequence (P02776 32-101): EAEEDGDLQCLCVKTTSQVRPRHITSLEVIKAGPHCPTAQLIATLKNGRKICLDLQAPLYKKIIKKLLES
Description: as §1, §2, §3

[7] = test system: anti-versican monoclonal antibody 2B1; experiment: Sandwich-type ELISA, versican binding to antibody 2B1; conditions: FIG. 4 panel B
Description: (§4) ACHN cells were cultured for 2 days in the presence or absence of 100 mM sodium chlorate in RPMI 1640 containing 10% by weight of bovine fetal serum. After the conditioned medium was removed, cells were further cultured for 4 days in a serum-free medium, EX-CELL 610 HSF [manufactured by JRH Bioscience] in the presence or absence of 100 mM sodium chlorate. The conditioned medium was recovered, and spun at 10,000×g at 4° C. for 15 minutes to obtain each of a sodium chlorate-treated conditioned medium and sodium chlorate-untreated conditioned medium.
(§5) Binding between each of the resulting low-sulfated versican and intact versican, and chemokine was examined by sandwich-type enzyme-linked immunosorbent assay. […]
(§6) A conditioned medium of sodium chlorate-treated ACHN cells or a conditioned medium of sodium chlorate-untreated ACHN cells was added to a well of the resulting plate, followed by incubation for 1 hour. […] Binding was determined by measuring absorbance at 620 nm using alkaline phosphatase-conjugated streptavidin and Blue Phos™ substrate. […]

CD44-Ig [8] = experiment: Sandwich-type ELISA, versican binding to CD44-Ig; design: species or system human; conditions: FIG. 4 panel B
Description: as §4, §5, §6

L-selectin-Ig [9] = target: T1, L-selectin-Ig; experiment: Sandwich-type ELISA, versican binding to L-selectin-Ig; conditions: FIG. 4 panel B
Description: as §4, §5, §6

P-selectin-Ig [10] = experiment: Sandwich-type ELISA, versican binding to P-selectin-Ig; conditions: FIG. 4 panel B
Description: as §4, §5, §6

[11] = test system: secondary lymphoid tissue chemokine; experiment: Sandwich-type ELISA, versican binding to SLC; conditions: FIG. 4 panel B
Description: as §4, §5, §6

[12] = target: T2, γ-interferon inducible protein-10; experiment: Sandwich-type ELISA, versican binding to IP-10; conditions: FIG. 4 panel B
Description: as §4, §5, §6

platelet factor 4 [13] = target: T4, platelet factor 4; experiment: Sandwich-type ELISA, versican binding to PF4; conditions: FIG. 4 panel B
Description: as §4, §5, §6

[14] = target: T3, stromal cell-derived factor-1β; experiment: Sandwich-type ELISA, versican binding to SDF-1β; conditions: FIG. 4 panel B
Description: as §4, §5, §6

[15] = target: T5, C-terminal truncated secondary lymphoid tissue chemokine (Homo sapiens, UniProt O00585); experiment: Sandwich-type ELISA, versican binding to SLC-T; conditions: FIG. 4 panel B
T5 construct: gift: Dr. Melissa Swoop Wills, Vertex Pharmaceutical Co
T5 sequence (O00585 24-102 limits assumed): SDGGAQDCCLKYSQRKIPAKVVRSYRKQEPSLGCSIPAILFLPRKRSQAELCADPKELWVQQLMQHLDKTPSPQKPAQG
Description: as §4, §5, §6

[16] = target: T6, stromal cell-derived factor-1α (Homo sapiens, UniProt P48061); experiment: Sandwich-type ELISA, versican binding to SDF-1α; conditions: FIG. 4 panel B
T6 construct: purchased Pepro Tech
Description: as §4, §5, §6

L-selectin-Ig [17] = target: T1, L-selectin-Ig; experiment: Binding inhibition assay (ELISA), biotinylated versican to L-selectin-Ig, various concentrations; conditions: dose-dependent, FIG. 2 panel A
Description: (§7) Inhibition assay of binding between versican and each of L-selectin, P-selectin and CD44 was performed as follows. First, each well on a 96 well flat bottom microtiter plate (Coster EIA/RIA plate No. 3690) was coated with L-selectin-Ig (3 μg/ml), P-selectin-Ig (4 μg/ml) or CD44-Ig (0.25 μg/ml) by a conventional procedure. […] The plate was incubated at room temperature for 2 hours. Thereafter, the plate was washed with the buffer A, and enzyme-linked immunosorbent assay was performed in the same manner as described in Kawashima, H. et al. [J. Biol. Chem., 275, 35448-35456 (2000)]. Binding was determined by measuring absorbance at 620 nm using alkaline phosphatase-conjugated streptavidin and Blue Phos™ substrate.

P-selectin-Ig [18] = experiment: Binding inhibition assay (ELISA), biotinylated versican to P-selectin-Ig, various concentrations; conditions: dose-dependent, FIG. 2 panel B
Description: as §7

CD44-Ig [19] = experiment: Binding inhibition assay (ELISA), biotinylated versican to CD44-Ig, various concentrations; design: species or system human; conditions: FIG. 2 panel C
Description: as §7

E-selectin-Ig = experiment: Immunoprecipitation of versican from ACHN conditioned medium with E-selectin-Ig; assay type: binding; conditions: FIG. 1 lanes 13 and 14
Description: ACHN cells were pre-incubated at 37° C. for 6 hours in RPMI 1640 containing 10% by weight of bovine fetal serum in the presence or absence of 30 mM sodium chlorate. A confluent monolayer of the resulting ACHN cells was labeled by incubation for 18 hours in the presence or absence of 30 mM sodium chlorate, in a medium of either of:
Immunoprecipitation was performed as follows, according to the method described in the publication of Kawashima, H. et al. [Int. Immunol., 11, 393-405 (1999); all teachings of which are hereby incorporated by reference] except that beads were washed using buffer A (0.05% Tween 20, 20 mM HEPES-NaOH, 0.15M NaCl, 1 mM CaCl2, 1 mM MgCl2, pH6.8).
Each of the antibody and the Ig chimera shown in FIG. 1 (equivalent to 10 μg) was coupled to Protein A-Sepharose column (equivalent to 10 μL) by a conventional method, to obtain antibody-coupled Protein A-Sepharose or Ig chimera-coupled Protein A-Sepharose. […]
Thereafter, the beads were washed with the buffer A, to obtain precipitates. The resulting precipitates were subjected to SDS-agarose-PAGE, and thereafter, signal ascribed to ^35S label on a gel was detected by autoradiography.

monomeric L-selectin = conditions: immobilized ligand; cited from earlier work

T1 sequence (P14151 with tags, fused parts or gaps limits assumed): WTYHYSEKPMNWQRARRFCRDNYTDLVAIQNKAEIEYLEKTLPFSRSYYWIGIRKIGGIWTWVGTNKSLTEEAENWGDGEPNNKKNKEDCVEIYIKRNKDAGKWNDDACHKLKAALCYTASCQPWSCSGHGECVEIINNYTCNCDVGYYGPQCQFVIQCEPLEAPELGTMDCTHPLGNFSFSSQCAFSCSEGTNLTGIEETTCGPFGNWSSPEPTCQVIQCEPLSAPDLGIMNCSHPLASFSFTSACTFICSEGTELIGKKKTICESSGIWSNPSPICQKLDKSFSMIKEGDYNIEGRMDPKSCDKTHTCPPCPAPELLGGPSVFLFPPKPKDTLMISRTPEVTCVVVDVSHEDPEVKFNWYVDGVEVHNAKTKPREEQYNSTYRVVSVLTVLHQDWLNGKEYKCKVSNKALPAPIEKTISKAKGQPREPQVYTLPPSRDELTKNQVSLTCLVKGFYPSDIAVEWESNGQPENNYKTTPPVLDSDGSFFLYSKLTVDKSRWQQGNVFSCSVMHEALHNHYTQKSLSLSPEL
CD44-Ig, sequence (P16070 21-178 limits assumed): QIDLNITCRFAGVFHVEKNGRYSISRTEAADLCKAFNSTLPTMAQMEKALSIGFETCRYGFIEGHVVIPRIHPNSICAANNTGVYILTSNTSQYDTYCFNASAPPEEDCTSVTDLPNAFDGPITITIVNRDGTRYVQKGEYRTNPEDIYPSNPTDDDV

GlcAβ1-3GalNAc(4,6-O-disulfate)β1-4GlcAβ1-3GalNAc(4,6-O-disulfate) [fraction e-2]
binding of biotinylated oligosaccharide fraction to L-selectin-Ig (L-selectin-Ig [1]): bound | binding of biotinylated oligosaccharide fraction to P-selectin-Ig (P-selectin-Ig [2]): bound | binding of biotinylated oligosaccharide fraction to secondary lymphoid tissue chemokine [3]: bound | binding of biotinylated oligosaccharide fraction to γ-interferon inducible protein-10 [4]: bound | binding of biotinylated oligosaccharide fraction to stromal cell-derived factor-1β [5]: bound

GlcAβ1-3GalNAc(4,6-O-disulfate)β1-4GlcAβ1-3GalNAc(4-O-sulfate) [fraction e-1]
binding of biotinylated oligosaccharide fraction to L-selectin-Ig (L-selectin-Ig [1]): did not bind | binding of biotinylated oligosaccharide fraction to P-selectin-Ig (P-selectin-Ig [2]): did not bind | binding of biotinylated oligosaccharide fraction to secondary lymphoid tissue chemokine [3]: did not bind | binding of biotinylated oligosaccharide fraction to γ-interferon inducible protein-10 [4]: did not bind | binding of biotinylated oligosaccharide fraction to stromal cell-derived factor-1β [5]: did not bind | binding of biotinylated oligosaccharide fraction to platelet factor 4 (platelet factor 4 [6]): moderately bound

intact versican: versican from conditioned medium of sodium chlorate-untreated ACHN cells
binding to anti-versican monoclonal antibody 2B1 [7]: bound | binding to CD44-Ig (CD44-Ig [8]): bound | binding to L-selectin-Ig (L-selectin-Ig [9]): bound | binding to P-selectin-Ig (P-selectin-Ig [10]): bound | binding to secondary lymphoid tissue chemokine [11]: remarkably bound | binding to γ-interferon inducible protein-10 [12]: remarkably bound | binding to platelet factor 4 (platelet factor 4 [13]): remarkably bound | binding to stromal cell-derived factor-1β [14]: remarkably bound | binding to recombinant truncated-type secondary lymphoid tissue chemokine [15]: scarcely bound | binding to stromal cell-derived factor-1α [16]: did not bind

keratan sulfate
inhibition of binding between biotinylated versican and L-selectin-Ig (L-selectin-Ig [17]): not inhibited | inhibition of binding between biotinylated versican and P-selectin-Ig (P-selectin-Ig [18]): not inhibited | inhibition of binding between biotinylated versican and CD44-Ig (CD44-Ig [19]): not inhibited

low-sulfated versican: versican from conditioned medium of ACHN cells treated with 100 mM sodium chlorate, mainly unsulfated CS/DS chain
binding to anti-versican monoclonal antibody 2B1 [7]: bound | binding to CD44-Ig (CD44-Ig [8]): bound | binding to recombinant truncated-type secondary lymphoid tissue chemokine [15]: scarcely bound | binding to stromal cell-derived factor-1α [16]: did not bind

unsulfated versican: versican from ACHN cells treated with 30 mM sodium chlorate
interaction with E-selectin-Ig (E-selectin-Ig): did not interact

B1: GlyCAM-1: known ligand of L-selectin (protein, UniProt Q02596 20-151, looked up)
Glycosylation-dependent cell …: LPGSKDELQMKTQPTDAIPAAQSTPTSYTSEESTSSKDLSKEPSIFREELISKDNVVIESTKPENQEAQDGLRSGSSQLEETTRPTTSAATTSEENLTKSSQTVEEELGKIIEGFVTGAEDIISGASRITKS
Kd (monomeric L-selectin): 108 µM | association rate (monomeric L-selectin): ≥ 10^5 M^−1s^−1
